Measured values from patent US20230130403A1, “METHODS OF TREATMENT WITH S1P RECEPTOR MODULATORS” (PRIOTHERA SAS, priority 2021, published 2023).
Like-named read-outs stand apart in the source and are kept apart here.

What was measured:
[1] = tested on: allogeneic-stimulated T cell proliferation; experiment: Mixed lymphocyte reactions (MLR); type: cell-based; conditions: therapeutic concentrations in vitro
Source text: (§1) KRP203 reduces lymphocyte counts in peripheral blood by more than 80%.

[2] = tested on: lymphocyte counts in peripheral blood; experiment: Reduction of lymphocyte counts in peripheral blood; conditions: in vivo
Source text: as §1

[3] = tested on: respiratory function in dogs; experiment: Safety pharmacology: respiratory function in dogs; type: in vivo, dog; conditions: doses up to 20 mg/kg (highest dose tested)
Source text: (§2) Based on the available in vitro and in vivo data, except for the potential to cause a negative chronotropic effect and some mild increase in blood pressure, there is no indication that KRP203 would cause arrhythmia or QT prolongation in man.

[4] = tested on: QT prolongation; experiment: QT prolongation in telemetered dogs; type: in vivo, dog
Source text: as §2

[5] = tested on: QT prolongation; experiment: QT prolongation in anaesthetized guinea pigs; type: in vivo, guinea pig
Source text: as §2

[6] = tested on: human cytochrome P450 isoenzymes; experiment: Inhibition of cytochrome P450 isoenzymes in vitro; type: in vitro ADME
Protocol: The in vivo ratio of phosphorylated KRP203 to KRP203 in plasma was up to 45 in rat. As the metabolic activities on KRP203 in human blood and hepatocytes were lower than those of other species, the metabolic clearance of KRP203 in man is expected be lower than that in rat and dog. […] KRP230 formed low amounts of covalent drug-protein adducts in human hepatocytes in vitro. Due to the low levels detected ([…] at 3 hours) in-vitro adduct formation is unlikely to be associated with clinical relevant findings at low dose levels (e.g. below 10 mg).
(§3) The weak inhibitory effect of ciclosporin on hepatic CYP3A4 is unlikely to relevantly impact the PK of KRP203.

[7] = molecular target: CYP3A4 via the human PXR receptor (Homo sapiens, UniProt O75469); experiment: CYP3A4 induction via PXR; type: in vitro ADME
[8] = Repeat-dose toxicity studies in mice; conditions: in vivo; 13-week mouse study, 20 mg/kg; read-out: systemic exposure (AUC0-24 h)
Protocol: (§4) The kidney was a target organ of toxicity in mice only and only in a 2-week study at doses ≥45 mg/kg.
(§5) Kidney impairment was most likely the primary cause of death/moribundity seen in this study.

[9] = tested on: mice; experiment: Repeat-dose toxicity studies in mice; conditions: mouse, in vivo
Protocol: as §4, §5

[10] = tested on: rats; experiment: Repeat-dose toxicity studies in rats; type: in vivo
Source text: (§6) Transitory activation of phagocytic cells and increased secretion of soluble markers by these cells is considered a main contributing factor to smooth muscle hypertrophy/hyperplasia.

[11] = tested on: dogs; experiment: Repeat-dose toxicity studies in dogs; type: in vivo
Source text: as §6

[12] = tested on: rabbit skin; experiment: Skin irritation; type: in vivo
[13] = tested on: contact sensitizing potential; experiment: Contact sensitization; conditions: in vivo
[14] = tested on: healthy volunteers and patients (ulcerative colitis, subacute cutaneous lupus erythematosus, Crohn's disease); experiment: Placebo-controlled clinical trials of KRP203 in healthy volunteers and patients; type: in vivo, human
Protocol: The clinical experience with mocravimod includes single doses up to 40 mg in healthy volunteers and multiple doses up to 3 mg/day in healthy volunteers and patients. […] In the phase […] study, mocravimod was administered for up to around 3 months in patients with several different hematologic malignancies receiving allogeneic HSCT. […] However, patient numbers were low and efficacy results warrant more data in a more homogeneous patient population. To gather more data on both doses, this phase IIb study will investigate mocravimod at two different dose levels, a daily dose of 1 mg as well as of 3 mg.

[15] = molecular target: CYP3A4 (Homo sapiens, UniProt P08684); experiment: Metabolism by CYP enzymes (in vitro data); type: in vitro ADME
Source text: as §3

[16] = dog, in vivo
[17] = rat, in vivo
[18] = tested on: patients undergoing allogeneic HSCT for hematological malignancies; experiment: Study CKRP203A2105, phase Ib in patients undergoing allogeneic HSCT;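 further: counts of subjects, HLA-matched donor stem cells, transplant on Day 11 following myeloablative chemotherapy conditioning from Day 2 to Day 10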
Source text: The study population comprised of male or female subjects who were diagnosed with a hematological malignancy and qualified for a standard allogeneic HSCT where HLA matched stem cell source was available. Such malignancies included but were not limited to acute myeloid leukemia (AML), acute lymphoid leukemia (ALL), myelodysplastic syndrome (MDS, chronic lymphoid leukemia (CLL), marginal zone and follicular lymphomas, large-cell lymphoma, lymphoblastic, Burkitt's and other high grade lymphomas; mantle-cell lymphoma, lymphoplasmacytic lymphoma; prolymphocytic leukemia or multiple myeloma.
HSCT was performed on Day 11. In addition to the investigational treatment with KRP203, the activities included conditioning, standard GvHD prophylaxis, infusion of the stem cells, pre and post-transplant supportive care and follow-up assessments according to the institutional practices. Subjects remained hospitalized for two to five days after bone marrow engraftment occurred. The subsequent study visits were ambulatory or in-house, if needed depending on the health status of the subject.
Myeloablative conditioning was performed between Day 2 and Day 10 as per SOC using chemotherapy.
As in Part 1, HSCT was performed on Day 11, all other procedures/visits were same as in Part 1.

[19] = Part 1, 3 mg KRP203+CsA, n=10, after 30 days of transplant
[20] = Part 1, 3 mg KRP203+CsA, n=10, from transplant up to 30 days of transplant
[21] = Part 1, 3 mg KRP203+CsA, n=10, start of treatment until just before transplant
[22] = Part 1, after 30 days of transplantation
[23] = Part 1, start of treatment until just before transplant
[24] = Part 2, 1 mg KRP203+CsA arm, from transplant up to 30 days after transplant
[25] = Part 2, after 30 days of transplantation
[26] = Part 2, following 30 days after transplant

Sequence of CYP3A4 (P08684 whole entry): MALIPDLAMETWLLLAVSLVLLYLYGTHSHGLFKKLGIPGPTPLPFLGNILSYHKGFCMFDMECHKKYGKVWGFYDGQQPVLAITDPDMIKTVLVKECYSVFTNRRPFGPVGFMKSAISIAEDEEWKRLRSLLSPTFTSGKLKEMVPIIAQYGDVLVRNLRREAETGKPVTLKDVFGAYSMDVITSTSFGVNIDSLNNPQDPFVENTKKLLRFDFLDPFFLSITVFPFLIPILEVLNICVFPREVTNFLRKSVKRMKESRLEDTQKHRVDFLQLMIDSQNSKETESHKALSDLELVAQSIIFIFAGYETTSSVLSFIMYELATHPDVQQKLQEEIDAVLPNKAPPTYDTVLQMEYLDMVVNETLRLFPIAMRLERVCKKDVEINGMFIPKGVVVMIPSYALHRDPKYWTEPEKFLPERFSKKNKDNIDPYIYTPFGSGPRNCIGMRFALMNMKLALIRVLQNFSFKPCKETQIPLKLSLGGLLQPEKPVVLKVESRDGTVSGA
Sequence of CYP3A4 via the human PXR receptor (O75469 whole entry): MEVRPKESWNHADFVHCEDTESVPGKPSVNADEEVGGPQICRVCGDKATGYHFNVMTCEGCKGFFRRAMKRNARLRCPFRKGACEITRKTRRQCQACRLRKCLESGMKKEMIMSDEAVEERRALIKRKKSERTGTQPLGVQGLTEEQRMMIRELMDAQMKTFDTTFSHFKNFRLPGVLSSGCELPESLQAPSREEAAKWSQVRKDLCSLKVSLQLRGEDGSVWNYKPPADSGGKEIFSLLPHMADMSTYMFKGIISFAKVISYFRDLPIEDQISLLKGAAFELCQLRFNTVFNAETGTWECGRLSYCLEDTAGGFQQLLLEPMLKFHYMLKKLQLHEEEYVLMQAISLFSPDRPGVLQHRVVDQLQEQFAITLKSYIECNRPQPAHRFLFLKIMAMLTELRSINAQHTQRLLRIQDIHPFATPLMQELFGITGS

NC(CO)(CO)CCc1ccc(Sc2cccc(OCc3ccccc3)c2)cc1Cl [KRP203, 2-amino-2-[4-(3-benzyloxyphenylthio)-2-chlorophenyl] ethyl-propane-1,3-diol]
inhibition of allogeneic-stimulated T cell proliferation [1]: does not inhibit | reduction of lymphocyte counts in peripheral blood [2]: more than 80% | effects on respiratory function [3]: no significant effects | QT prolongation [4]: No indication for QT prolongation | QT prolongation [5]: No indication for QT prolongation | effect on cytochromes P450 enzymes and transporters [6]: lack of effect | potential in inhibiting the activity of human cytochrome P450 isoenzymes ([6]; in vitro tests): did not show relevant potential | no significant induction of CYP3A4 via the human PXR receptor up to concentration [7]: ≤ 6.15 µM | AUC0-24 [8]: ~7250 ng·h/mL | doses with kidney toxicity ([9]; both, 2 weeks): ≥ 45 mg/kg | doses with mortality ([9]; both, 2 weeks): ≥ 45 mg/kg/day | no kidney changes up to highest dose level ([9]; 13 weeks): ≤ 20 mg/kg | local tolerability in the gastro-intestinal tract ([10]; oral dosing in rats or dogs up to 26 or 13 weeks): no indication for impaired local tolerability | hepatic effects ([10]; rats and mice, not in dogs): mild and did only occur at high dose levels | no mortality up to daily dose ([10]; rats, up to 26-week): ≤ 50 mg/kg | gastro-intestinal findings ([11]; 26- and 52-week dog toxicity studies): gastro-intestinal tract disturbance with soft/mucoid stools and diarrhea occurred in males only at the high dose level | no mortality up to daily dose ([11]; dogs, up to 52-week): ≤ 15 mg/kg | skin irritation [12]: not irritating | contact sensitizing potential [13]: does not have a contact sensitizing potential | tolerability [14]: well tolerated | metabolism by CYP enzymes [15]: only to a limited extent | metabolism by CYP enzymes ([15]; listed as Mocravimod): mainly metabolized by the enzyme CYP3A4 | accumulation after repeated dosing (4 and 13 weeks) [16]: no evidence of accumulation | increase of exposure at the end of the 13-week treatment compared to single dose ([17]; both, 13 weeks): 2-5 fold | proportionality between exposure and dose [17]: apparent proportionality between exposure and dose | subjects with AEs that resulted in discontinuation of study drug ([18]; 1 mg KRP203+CsA arm): 33% | safety profile between dose groups ([18]; 1 mg/day plus CsA or 3 mg/day plus CsA or TAC): comparable between the 1 mg and 3 mg mocravimod dose groups | subjects with AEs that resulted in discontinuation of study drug ([18]; 3 mg KRP203+CsA arm): 29% | subjects with AEs that resulted in discontinuation of study drug ([18]; 3 mg KRP203+Tac arm): 14% | subjects with AEs, SOC general disorders and administration site conditions [18, 19]: 60% | subjects with AEs, SOC immune system disorders [18, 19]: 100% | subjects with AEs, SOC infection and infestations [18, 19]: 50% | subjects with acute GvHD in intestine [18, 19]: 30% | subjects with acute GvHD in skin [18, 19]: 30% | subjects with chronic GvHD [18, 19]: 70% | subjects with chronic GvHD in intestine [18, 19]: 20% | subjects with chronic GvHD in liver [18, 19]: 50% | subjects with chronic GvHD in skin [18, 19]: 30% | subjects with diarrhea [18, 19]: 20% | subjects with edema peripheral [18, 19]: 40% | subjects with edema peripheral suspected related to study treatment [18, 19]: 20% | subjects with eyelid edema [18, 19]: 20% | subjects with nausea [18, 19]: 20% | subjects with rash [18, 19]: 20% | subjects with AEs, SOC gastrointestinal disorder [18, 20]: 70% | subjects with AEs, SOC immune system disorders [18, 20]: 30% | subjects with AEs, SOC nervous system disorders [18, 20]: 30% | subjects with AEs, SOC respiratory, thoracic and mediastinal disorders [18, 20]: 40% | subjects with AEs, SOC vascular disorders [18, 20]: 30% | subjects with acute GvHD in intestine [18, 20]: 30% | subjects with capillary leak syndrome (suspected related to study treatment) [18, 20]: 20% | subjects with nausea [18, 20]: 20% | subjects with pleural effusion (suspected related to study treatment) [18, 20]: 20% | subjects with vomiting [18, 20]: 60% | subjects with AEs, SOC gastrointestinal disorders [18, 21]: 60% | subjects with bradycardia [18, 21]: 20% | subjects with bradycardia suspected related to study treatment [18, 21]: 20% | subjects with hypertension suspected related to study treatment [18, 21]: 10% | subjects with nausea [18, 21]: 20% | subjects with sinus arrest suspected related to study treatment [18, 21]: 10% | subjects with vomiting [18, 21]: 40% | subjects reporting AEs ([18]; Part 1, after 30 days of study treatment): all subjects | subjects with serious AEs suspected related (cystoid macular edema, dyspnea exertional, edema peripheral) ([18]; Part 1, after 30 days of transplant, mild severities): 10% | subjects with SAEs [18, 22]: 40% | subjects with SAEs, general disorders and administration site conditions [18, 22]: 30% | subjects with SAEs, infections and infestations [18, 22]: 20% | subjects with SAEs, neoplasms benign, malignant and unspecified [18, 22]: 20% | subjects with serious AEs (acute GvHD, dyspnea and weight increased) ([18]; Part 1, from transplant up to 30 days after the transplant): 20% | subjects reporting AEs [18, 23]: seven subjects | subjects with serious AE of vomiting [18, 23]: 10% | subjects reporting AEs ([18]; Part 1, up to 30 days of transplant): nine subjects | subjects with serious AEs of blepharitis and cystoid macular edema [18, 24]: 10% | subjects with serious AEs suspected related (blepharitis Grade 2, cystoid macular edema Grade 3) [18, 24]: 17% | subjects with at least one AE ([18]; Part 2, both treatment arms (n=13), in each of the three periods): 100% | subjects with serious AE acute GvHD in intestine [18, 25]: 23% | subjects with serious AE diarrhea [18, 25]: 15% | subjects with serious AE general physical health deterioration [18, 25]: 15% | incidence each of febrile bone marrow aplasia, hepatic failure, Hodgkin's disease, macular ischemia and retinal ischemia (related SAEs) [18, 26]: 8% | subjects with serious AEs suspected related to study treatment [18, 26]: 31% | serious AEs ([18]; Part 2, start of treatment until just before transplant): No serious AE | study discontinuation due to AEs ([18]; all 23 treated subjects): 13% | study discontinuation due to death ([18]; all 23 treated subjects): 9% | deaths reported ([18]; overall, during the study, one-year and long-term follow-up period): seven
